Assay results reported in patent publication US12416036B2, “High-throughput enzyme assay for screening activity of acyltransferases” (CORNELL UNIVERSITY, priority 2021, dated 2025).
Positions count from the first letter of the chain named. “Also recorded” adds a separate entry of the source. Read-outs that look alike come from different tables or passages of the source. Residues, ends and D or L forms follow the SMILES beside them. *: point of attachment. 5FAM = O=C1OC2(c3ccc(O)cc3Oc3cc(O)ccc32)c2ccc(C(=O)*)cc21

How the values were obtained:
ZDHHC7 [1] = molecular target: T1, ZDHHC7 (Homo sapiens, UniProt Q9NXF8); assay: STAT3 fatty acylation induced by ZDHHC7 in HEK293T cells (Alk14 labeling, in-gel fluorescence); conditions: for STAT3 fatty acylation (ZDHHC7): 50 μM inhibitor, 6-hour treatment; for STAT3 acylation (ZDHHC7): 12- and 24-hour inhibitor treatment; for in-cell inhibition of ZDHHC7 (overall): HEK293T cells, summary statement
T1 sequence (Q9NXF8 1-308): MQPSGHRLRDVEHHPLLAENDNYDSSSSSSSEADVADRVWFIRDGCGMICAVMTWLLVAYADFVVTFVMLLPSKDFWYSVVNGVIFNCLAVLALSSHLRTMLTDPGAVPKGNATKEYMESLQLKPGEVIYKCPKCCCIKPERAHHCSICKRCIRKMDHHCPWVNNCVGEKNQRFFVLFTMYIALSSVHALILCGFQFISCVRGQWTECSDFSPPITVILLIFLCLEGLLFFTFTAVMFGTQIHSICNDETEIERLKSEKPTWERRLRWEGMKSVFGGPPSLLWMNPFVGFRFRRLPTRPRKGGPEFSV
Experimental: Cells were treated with 50 μM of the inhibitors for the indicated hours and labeled with 50 μM of Alk-14 for 6 hours. […] Cells were treated with 25 μM of inhibitors for 16 hours and labeled with 50 μM of Alk-14 for 6 hours. Relative FL/Protein for both experiments was calculated by dividing fluorescence signal by the protein level from the corresponding “CBB” lane. The fatty acylation level of DMSO with Alk14 was set to 1.
Flag-tagged STAT3 and HA-tagged ZDHHC7 were expressed in HEK293T cells. The cells were incubated with the four inhibitors. During the last six hours of the incubation, 50 μM of Alk14 probe was added to metabolically label palmitoylated STAT3. After collecting and lysing the cells, STAT3 was immunoprecipitated and the levels of acylation were determined by in-gel fluorescence after click chemistry.
HEK 293T cells were transfected with STAT3-Flag and ZDHHC3-HA or ZDHHC7-HA for 36 h, and treated with 50 μM 2-BP, MY-D-2, MY-D-3, or MY-D-4 for the indicated time with 6 h Alk14 labeling (50 μM). Cells were collected and lysed in the 1% NP-40 lysis buffer (25 mM Tris-HCl pH 8.0, 10% glycerol, 150 mM NaCl, 1% Nonidet P-40) with protease inhibitor cocktail (P8340, Sigma). STAT3-Flag was purified by anti-Flag agarose beads and resuspended in 50 μL IP wash buffer (25 mM Tris-HCl pH 8.0, 150 mM NaCl, 0.2% Nonidet P-40). Click chemistry was done by adding a mixture of 3 μL of 2 mM TAMRA azide (47130, Lumiprobe), 3.6 μL of 10 mM tris[(1-benzyl-1H-1,2,3-triazol-4-yl)methyl]amine (TBTA) (T2993, TCI chemicals), 3 μL of 40 mM CuSO4, 3 μL of 40 mM tris(2-carboxyethyl)phosphine HCl (TCEP hydrochloride) (580560, Millipore) to each sample. The mixtures were mixed by vortex and incubated in dark at room temperature for 30 min. 20 μL of the 6× loading buffer was added into each reaction mixture and the mixture was boiled at 95° C. for 10 min to denature. The mixture was separated by SDS-PAGE gel. The gel was scanned by the Typhoon 7000 Variable Mode Imager (GE Healthcare Life Sciences) in the rhodamine channel to visualize the fatty acylation of STAT3 and was stained with Coomassie Brilliant Blue (B7920, Sigma) to check for protein loading. Relative FL/Protein quantification was done by ImageJ.

ZDHHC7 [2] = molecular target: T2, ZDHHC7 (Mus musculus, UniProt Q91WU6); assay: ZDHHC7 Acyl-cLIP assay (end-point method)
T2 sequence (Q91WU6 1-308): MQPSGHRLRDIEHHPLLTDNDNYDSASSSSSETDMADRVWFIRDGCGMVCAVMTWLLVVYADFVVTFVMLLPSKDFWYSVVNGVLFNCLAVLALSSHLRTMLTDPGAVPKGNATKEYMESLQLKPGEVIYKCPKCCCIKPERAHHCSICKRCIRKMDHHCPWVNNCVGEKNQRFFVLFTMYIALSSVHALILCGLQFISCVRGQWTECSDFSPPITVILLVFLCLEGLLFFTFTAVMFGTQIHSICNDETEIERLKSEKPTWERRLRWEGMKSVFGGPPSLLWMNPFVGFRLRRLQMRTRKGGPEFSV
Experimental: Because these inhibitors may form irreversible covalent bonds with ZDHHCs, the order of adding the reagents were changed and included a 30-minute pre-incubation time to permit the bond to form prior to the addition of the FAM peptide and palmitoyl-CoA to initiate the reaction.
n-Dodecyl β-D-maltoside (DDM, 1.3 mg) was dissolved in 1 mL of water by vigorous vortexing. Preparing for 19 samples, “Buffer A” was prepared as follows: In a 1.5 mL Eppendorf tube with the DDM solution (190 μL), MES buffer pH 6.5 (stock concentration 500 mM, 38 μL), TCEP (stock concentration 30 mM, 6.33 μL), and ZDHHC7 (stock concentration 6 μM, 19 μL) were added. For the same 19 samples, “Buffer B” was prepared as followed. In a 1.5 mL Eppendorf tube with the DDM solution (76 μL), palmitoyl-CoA (stock concentration 1.5 mM, 12.6 μL) and FAM-Kras4a substrate (stock concentration 0.5 mM, 19 μL) was added. To each well of a black 384 well plate (Corning 3575), 1 μL of inhibitor (concentration ranging from 93.75 μM to 6000 μM) was added. First, 13.3 μL of “Buffer A” was added to each well. After a 30-minute pre-incubation, 5.66 μL of “Buffer B” was added. The final concentration of the reaction mixture was 50 mM MES pH 6.4, 0.5 mM TCEP, 40 μM palmitoyl-CoA, 0.3 μM ZDHHC7, and 25 μM FAM-KRas4a substrate in 0.1% DDM solution. After 30 minutes, the reaction was quenched by adding 4 μL of 6 mM non-FAM KRas-4a substrate. The fluorescence anisotropy was measured by citation 5 with “8040561 Filter BLK ASBY GRN FP VSBL K” cube at excitation of 485/20 nm, emission of 528/20 nm, and normal read speed mode. The measurements were done in 3 replicates at each inhibitor concentration.

ZDHHC3 [3] = molecular target: T3, ZDHHC3 (Mus musculus, UniProt Q8R173); assay: ZDHHC3 Acyl-cLIP assay (end-point method); format: biochemical; conditions: for inhibition of ZDHHC3 compared with ZDHHC7 (Acyl-cLIP): comparison of Acyl-cLIP IC50 values
T3 construct: FLAG (C); His (C); made in house; host or cells: Sf9 insect cells (baculovirus)
T3 sequence (Q8R173 1-299): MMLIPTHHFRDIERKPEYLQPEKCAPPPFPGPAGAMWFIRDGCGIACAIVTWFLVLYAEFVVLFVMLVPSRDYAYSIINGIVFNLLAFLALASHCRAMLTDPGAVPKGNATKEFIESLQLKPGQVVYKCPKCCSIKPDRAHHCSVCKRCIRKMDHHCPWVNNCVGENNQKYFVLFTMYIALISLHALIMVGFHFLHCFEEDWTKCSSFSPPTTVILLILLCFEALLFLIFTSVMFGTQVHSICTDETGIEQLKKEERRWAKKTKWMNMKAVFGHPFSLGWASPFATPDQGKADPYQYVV
Experimental: The DHHC3 IC50 value for 2-BP and MY-D-4 were approximately 250 and 50 μM, respectively (Table 1).
ZDHHC3 was assayed using the similar protocol at a final concentration of 0.6 μM.
The rest of the experiment was done identical to the ZDHHC7 assay.
(§1) Purification of ZDHHC enzymes.

ZDHHC7 [4] = molecular target: T2, ZDHHC7; assay: ZDHHC7-myrGia PAT assay with [3H]palmitoyl-CoA; format: biochemical; set-up: myc (vector pblueBac4.5-myc3His10) (C); His (vector pblueBac4.5-myc3His10) (C); made in house; host or cells: Sf9 insect cells (baculovirus); conditions: [3H]palmitoyl-CoA and myr-Gia substrate; 10 min pre-incubation at 30° C.
Experimental: To further evaluate the potency of the inhibitors, the four compounds were tested using ZDHHC7-catalyzed palmitoylation of myristoylated (myr) Gi protein a subunit (Gia) using an established in vitro assay with [^3H]palmitoyl-CoA. Myr-Gia was previously reported as a substrate for ZDHHC7 (R. Tsutsumi et al., Mol. Cell. Biol., 29, 435-447, 2009). ZDHHC7 and the inhibitors were pre-incubated at 30° C. for 10 min, followed by the addition of [^3H]pal-mitoyl-CoA and myr-Gia. The acylation reaction was allowed to proceed at 30° C. for 10 min, the reaction was quenched, and the proteins resolved by SDS-PAGE. The [^3H]-palmitoylated myrGia band was excised from the gel and the level of [^3H]palmitoylation was measured by scintillation counting. […] Additionally, MY-D-2 and MY-D-3 inhibited ZDHHC7 weaker than 2-BP.
as §1
ZDHHC7-myrGia PAT Assay. Rat Myr-Gia was generated by transforming C-terminally His-tagged Gia in JM101 competent cells containing the N-myristoyltransferase (NMT) plasmid. Following inoculation and induction of the bacterial cells, myr-Gia was purified from total cell lysates using Ni-NTA resin. […] The PAT reaction was then initiated by mixing the enzyme:inhibitor solution with [^3H]-palmitoyl CoA (1 μM) and myr-Gia (1 μM). The reaction was allowed to proceed for 10 min at 30° C. and then stopped with the addition of sample buffer containing 10 mM TCEP. Proteins were resolved on a Coomassie-stained gel, and the myr-Gia band was excised and dissolved in Soluene (Perkin-Elmer). The excised bands were heated at 37° C. overnight and then combined with Ultima Gold scintillation fluid (Perkin-Elmer). Radioactivity was measured by scintillation counting. IC50 values for the inhibitors were calculated by plotting the inhibition curves in GraphPad Prism.

ZDHHC7 [5] = molecular target: T2, ZDHHC7; assay: Enzyme kinetics of ZDHHC7 on the FAM-KRas4a peptide by HPLC; format: biochemical; set-up: myc (vector pblueBac4.5-myc3His10) (C); His (vector pblueBac4.5-myc3His10) (C); made in house; host or cells: Sf9 insect cells (baculovirus); conditions: ZDHHC7, 60 μM palmitoyl-CoA
Experimental: ZDHHC-catalyzed S-palmitoylation was detected by LC-MS. To facilitate detection by UV, two tryptophan residues were added to the C-terminus of the peptide. In a second peptide, the 5-FAM group was attached to permit detection in the acyl-cLIP assay.
In solutions containing 0.1% DMM, 50 mM MES pH 6.4, 0.5 mM TCEP, 60 μM palmitoyl-CoA, and 0.15 μM DHHC7, FAM-KRas peptide was added to final concentration ranging from 31.25 μM to 2000 μM. After 10 minutes of incubation, the reaction was quenched with 0.1% acetonitrile. After centrifuging at 17 000 g for 10 minutes, the supernatant was loaded to Shimadzu HPLC LC20 Ad with Kinetex 5u EVO C18 100 Å column (100 mm×4.60 mm, 5 μm) for UV detection at 260 nm. Using HPLC-grade water with 0.1% trifluoroacetic acid as Buffer A and HPLC-grade acetonitrile with 0.1% trifluoroacetic acid, at a constant rate of 0.5 mL/min, the linear gradient for elution was 0% Buffer B (0-2 min), 20% Buffer B (2-4 min), 40% Buffer B (4-17 min), 100% Buffer B (17-19 min), 100% Buffer B (19-24 min), 0% Buffer B (24-25 min), and 0% Buffer B (25-30 min). Product formed was quantified using the ratio of substrate and product peak areas. After the detection, Km and kcat values were measured by GraphPad Prism software.

ZDHHC3 [6] = molecular target: T4, ZDHHC3 (Homo sapiens, UniProt Q9NYG2); assay: STAT3 fatty acylation induced by ZDHHC3 in HEK293T cells (Alk14 labeling, in-gel fluorescence); format: cell-based; conditions: for effect on ZDHHC3-catalyzed STAT3 acylation level: 25 μM, 6-hour treatment
T4 construct: HA; expressed in transfected cells; host or cells: HEK 293T cells
T4 sequence (Q9NYG2 1-299): T3 sequence (Q8R173 1-299) with D11N, A25V, F29Y, A33V, A35T, V68I, A74V, A224G
Description: Next experiments also tested the four compounds for ZDHHC3 inhibition in HEK293T cells that over-express both ZDHHC3 and STAT3. […] Thus, the results from the Acyl-cLIP assay can be used to predict cellular responses.

ZDHHC3 [7] = molecular target: T3, ZDHHC3; assay: ZDHHC-HRas PAT assay, ZDHHC3; format: biochemical; conditions: fixed inhibitor concentration of 1 μM; order MY-D-4, 2-BP, MY-D-2, MY-D-3
Experimental: (§2) The results of the Acyl-cLIP assay were also compared with a conventional assay using HRas protein. Next experiments screened at a fixed inhibitor concentration of 1 μM against ZDHHC3 and ZDHHC7 using [^3H]palmitoyl-CoA and HRas protein as substrates. The levels of [^3H]palmitoylated HRas were detected.
as §1
(§3) ZDHHC-HRas PAT Assay. His-HRas was purified from total cell lysates of baculovirus-infected Sf9 cells using Ni-NTA resin.

ZDHHC7 [8] = molecular target: T2, ZDHHC7; assay: ZDHHC-HRas PAT assay, ZDHHC7; format: biochemical; set-up: myc (vector pblueBac4.5-myc3His10) (C); His (vector pblueBac4.5-myc3His10) (C); made in house; host or cells: Sf9 insect cells (baculovirus); conditions: fixed inhibitor concentration of 1 μM; order MY-D-4, 2-BP, MY-D-2, MY-D-3
Experimental: as §2, §1, §3

[9] = 30-minute pre-incubation, FAM-KRas4a peptide substrate
[10] = IC50 (μM) ZDHHC7 (Acyl-cLIP), 30-minute pre-incubation with inhibitor, FAM-KRas4a peptide substrate
[11] = IC50 ZDHHC7 (Acyl-cLIP) without the pre-incubation, without pre-incubation

Compound	time-dependent inhibition of STAT3 acylation (ZDHHC7) (ZDHHC7 [1]; 25 μM inhibitor, HEK293T)	STAT3 fatty acylation (ZDHHC7) (ZDHHC7 [1]; HEK293T)	STAT3 acylation (ZDHHC7) (ZDHHC7 [1]; HEK293T)	IC50 (ZDHHC7 [2]; read-out: IC50 (μM) ZDHHC7 (Acyl-cLIP), 30-minute pre-incubation with inhibitor, FAM-KRas4a peptide substrate) [µM]	IC50 (ZDHHC7 [2]; read-out: IC50 ZDHHC7 (Acyl-cLIP) without the pre-incubation, without pre-incubation) [µM]	IC50 (ZDHHC3 [3]; [9]) [µM]	inhibition of ZDHHC3 compared with ZDHHC7 (Acyl-cLIP) (ZDHHC3 [3])	IC50 (ZDHHC7 [4]) [µM]	Km (ZDHHC7 [5]) [µM]	in-cell inhibition of ZDHHC7 (overall) (ZDHHC7 [1])	IC50 (ZDHHC7 [2]; [10]) [µM]	IC50 (ZDHHC7 [2]; [11]) [µM]	IC50 (μM) ZDHHC3 (Acyl-cLIP) (ZDHHC3 [3]; [9])	effect on ZDHHC3-catalyzed STAT3 acylation level (ZDHHC3 [6])	inhibition of ZDHHC7 (Acyl-cLIP) at highest concentration (ZDHHC7 [2]; at 150 μM)	IC50 (ZDHHC7 [1]) [µM]	IC50 (ZDHHC3 [3]) [µM]	inhibition of ZDHHC3, levels of [3H]palmitoylated HRas (ZDHHC3 [7])	inhibition of ZDHHC3 in living cells (FIG. 4B) (ZDHHC3 [6]; 25 μM of inhibitors for 16 hours)	inhibition of ZDHHC7, levels of [3H]palmitoylated HRas (ZDHHC7 [8])
CCCCCCCCCCCCCCC(Br)C(=O)O (centres unmarked) [2-BP, 2-bromopalmitate, reference compound]	slightly more inhibitory effect than MY-D-4	abolished	completely eliminated	9	12	> 250	inhibited ZDHHC3 much less than ZDHHC7	16	–	–	–	–	–	–	–	–	–	–	–	–
CC[C@H](C)[C@H](NC(=O)c1ccc2c(c1)C(=O)OC21c2ccc(O)cc2Oc2cc(O)ccc21)C(=O)N[C@@H](CO)C(=O)N[C@@H](CCCCN)C(=O)N[C@@H](CCC(=O)O)C(=O)N[C@@H](CCC(=O)O)C(=O)N[C@@H](CCCCN)C(=O)N[C@H](C(=O)N1CCC[C@H]1C(=O)NCC(=O)N[C@@H](CS)C(=O)N[C@H](C(=O)N[C@@H](CCCCN)C(=O)N[C@H](C(=O)N[C@@H](CCCCN)C(=O)N[C@@H](CCCCN)C(=O)O)[C@@H](C)CC)C(C)C)[C@@H](C)O [FAM-KRas4a peptide] (5FAM-ISKEEKTPGCVKIKK-OH)	–	–	–	–	–	–	–	–	184	–	–	–	–	–	–	–	–	–	–	–
CCCCCCCCCCCCCCC(Br)C(=O)OC [MY-D-2, methyl 2-bromohexadecanoate]	–	only slightly decreased	–	–	–	–	–	29	–	only mild inhibition	38	75	No	only slightly affected	–	–	–	–	–	–
CCCCCCCCCCCCCCC(Br)C(=O)Nc1ccccc1 [MY-D-3, 2-bromo-N-phenylhexadecanamide]	–	had no effect	–	–	–	–	–	78	–	no inhibition	> 150	–	No	did not alter	no inhibition	–	–	–	–	–
CCCCCCCCCCCCCCC(Br)C(=O)SCCNC(C)=O [MY-D-4, S-(2-acetamidoethyl) 2-bromohexadecanethioate]	–	significantly reduced	completely eliminated	–	–	–	inhibited ZDHHC3 much less than ZDHHC7	1.6	–	slightly weaker than or similar potency to 2-BP; also recorded: inhibits	4.4	6.3	–	–	–	1 to 5	~50	strongest inhibition among the four compounds	inhibits	strongest inhibition among the four compounds
